The text below walks through data of BindingDB's records for doi:10.1021/acs.jmedchem.6b00596 (University of Connecticut Health Center, 2016).

As a reminder, the IC50 is the concentration needed to halve the response being measured. Read a low IC50 as greater potency.

The target in this test is Ubiquitin carboxyl-terminal hydrolase 1/WD repeat-containing protein 48 (Homo sapiens, UniProt O94782+Q8TAF3). Description: Inhibition of human USP1/UAF1 complex using Ub-Rho as substrate by qHTS assay. For orientation: Quantitative high-throughput screening tests each substance at several concentrations.
Sequence of Ubiquitin carboxyl-terminal hydrolase 1/WD repeat-containing protein 48 (O94782 whole entry, looked up): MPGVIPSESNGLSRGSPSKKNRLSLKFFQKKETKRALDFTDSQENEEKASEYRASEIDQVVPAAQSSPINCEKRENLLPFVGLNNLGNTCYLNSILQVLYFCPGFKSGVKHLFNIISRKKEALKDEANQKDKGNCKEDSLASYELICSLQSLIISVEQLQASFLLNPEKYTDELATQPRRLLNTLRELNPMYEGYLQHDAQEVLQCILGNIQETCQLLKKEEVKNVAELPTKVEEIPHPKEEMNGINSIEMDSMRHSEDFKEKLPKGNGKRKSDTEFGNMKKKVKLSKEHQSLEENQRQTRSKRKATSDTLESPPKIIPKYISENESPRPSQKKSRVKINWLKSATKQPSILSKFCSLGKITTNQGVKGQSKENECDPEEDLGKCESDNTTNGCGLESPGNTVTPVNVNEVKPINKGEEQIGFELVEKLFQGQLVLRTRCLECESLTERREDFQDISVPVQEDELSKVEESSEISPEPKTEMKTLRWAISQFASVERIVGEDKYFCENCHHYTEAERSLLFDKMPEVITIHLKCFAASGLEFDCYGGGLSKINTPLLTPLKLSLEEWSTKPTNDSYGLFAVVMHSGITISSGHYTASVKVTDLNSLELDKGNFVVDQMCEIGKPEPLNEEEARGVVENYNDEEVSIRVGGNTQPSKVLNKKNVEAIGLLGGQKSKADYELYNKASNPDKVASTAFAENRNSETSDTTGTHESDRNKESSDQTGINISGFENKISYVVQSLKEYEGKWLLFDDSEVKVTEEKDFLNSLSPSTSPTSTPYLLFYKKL
Sequence of Ubiquitin carboxyl-terminal hydrolase 1/WD repeat-containing protein 48 (Q8TAF3 whole entry, looked up): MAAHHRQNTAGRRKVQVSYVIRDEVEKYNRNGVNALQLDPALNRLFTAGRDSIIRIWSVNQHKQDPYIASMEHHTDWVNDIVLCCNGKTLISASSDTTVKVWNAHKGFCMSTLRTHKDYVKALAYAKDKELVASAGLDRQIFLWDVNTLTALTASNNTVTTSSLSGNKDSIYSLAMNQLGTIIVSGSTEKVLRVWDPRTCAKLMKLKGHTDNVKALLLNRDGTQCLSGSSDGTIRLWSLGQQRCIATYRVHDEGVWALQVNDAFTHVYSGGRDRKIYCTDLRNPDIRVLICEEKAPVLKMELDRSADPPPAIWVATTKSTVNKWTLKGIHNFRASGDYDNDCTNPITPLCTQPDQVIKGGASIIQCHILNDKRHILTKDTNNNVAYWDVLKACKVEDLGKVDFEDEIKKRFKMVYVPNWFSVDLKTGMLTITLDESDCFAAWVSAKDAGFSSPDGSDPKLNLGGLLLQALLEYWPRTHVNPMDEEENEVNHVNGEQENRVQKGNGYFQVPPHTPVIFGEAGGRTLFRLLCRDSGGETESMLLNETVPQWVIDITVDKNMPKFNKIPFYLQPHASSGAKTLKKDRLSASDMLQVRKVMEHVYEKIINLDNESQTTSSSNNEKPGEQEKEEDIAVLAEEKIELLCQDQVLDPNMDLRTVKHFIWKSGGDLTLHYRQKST

In the case of `OCCN1CCN(CC/C=C2/c3ccccc3Sc3ccc(C(F)(F)F)cc32)CC1` [Fluphenthixol], 7 µM corresponded to half-maximal inhibition (IC50).
